The results in this text go back to US7871765B2, “Composition having antitumor effect” (priority 2004, dated 2011).

Assay [1] relates to MB49 cells. Description: Concurrent administration of MB49 cells, HVJ-E and ADM into the bladder. In kind it is in vivo, mouse. The conditions noted are these: two weeks. The method, then:
Three 6-week-old female C57BL/6Cr Slc mice per group were anesthetized by administering a mixture of 90 μl of ketamine (50 mg) and 10 μl of xylazine (2% solution) to the left femoral muscle, a 24G catheter was inserted into the bladder, 100 μl of each of the following sample solutions was administered using a 1-ml syringe, and the catheter was indwelled for 1 hour.
The groups established are as follows:
The number of MB49 cells administered was 5×10^6 cells. After adjustment to a final volume of 100 μl, each solution was administered into the bladder. Two weeks later, the bladder was extirpated, and sections were prepared and stained with HE.

Assay [2] has as its system MB49 cells. The assay is described as follows: MB49 cell-inoculated mouse model (intradermal), tumor volume. Format: in vivo. The source says: This experimental model can be prepared in accordance with, for example, a method described in Anticancer Res., 2004, 24(4):2225-30, and the like.
For assay [3], the system named is MB49 (transitional epithelial cancer) cells. Description: Adriamycin sensitivity of MB49 cells, WST-8 assay. In kind it is cell-based. To be noted: 48 hours. The method, then:
After 48 hours of cultivation, the supernatant was removed by WST-8 assay, 100 μl of a cell counting kit solution, previously diluted 10 fold with RPMI medium, was added, and the plate was allowed to stand at 37° C. for 1.5 hours. Absorbance at 450 nm was determined using a microplate reader. Assuming the absorbance of a sample of MB49 cells only to be 100% survival rate, the survival rates at various concentrations were calculated.

The test system of a further assay is CT-26 cells. The assay is described as follows: CTL assay using radiolabeled chromium with splenocytes of treated mice. Format: cell-based, mouse. To be noted: E/T ratio 80; CT-26 inoculated mice; HVJ-E/BLM 3 dosing where given. The procedure: To determine whether or not the antitumor immunity effect observed in the previous study was due to the induction of CT26 cell-specific antitumor immunity, splenocytes recovered from animals were stimulated with CT26 cells, and a CTL assay using radiolabeled chromium was performed to determine whether or not CT26-specific antitumor immunity had been induced.
In this study, (1) a CT-26 cell non-inoculation group, (2) a CT-26 cell-alone inoculation group, (3) a CT-26 cell inoculation+CDDP administration group, and (4) a CT-26 cell inoculation+CDDP+HVJ-E/BLM 3 dosing group were established and tested.
The spleen was extirpated from each anesthetized animal and recovered in a Petri dish (6 cm in diameter) containing 3 ml of RPMI solution. The spleen tissue was squashed between the frosted portions of two sterile glass slides, splenocytes were separated from the coat to the maximum possible extent, and the debris was removed through meshes. After 7 ml of PRMI solution was added, the cells were centrifuged at 1200 rpm for 10 minutes, and the supernatant was removed. […] The cells obtained from this operation were counted. […]
Actual CTL assay was performed with the ratio of effector cells (E) and target cells (T), E/T ratio, set at 80, […] 40, 20, 10, and 5. In this operation, 100 μl of target cells (1×10^5 cells/ml) were added to make a total quantity of 200 μl. […]

For the next assay, the system named is CT-26 tumor tissue. The assay is described as follows: HE and CD-4/CD-8 immunohistological staining of tumor tissue. To be noted: 9 days after CDDP administration; single dosing. Format: in vivo, mouse. The source says: (Study 5) To evaluate the infiltration of CD-4, CD-8, neutrophils, macrophage and the like in the tumor tissues examined in the study of the antitumor effect of the antitumor immunity, the following test groups were established, and tumor tissues were extirpated 9 days after administration of CDDP and subjected to immunohistological staining.
2-9) The tumor tissue was frozen in liquid nitrogen in preparation for staining the tumor tissue. The tumor tissue was cut into sections 8 μm in thickness using a cryostat. The tissue sections were fixed in −20° C. cold acetone for 15 minutes. After the sections were washed with water, endogenous avidin-biotin blocking was performed, and the sections were washed with water. The sample was reacted with normal rabbit serum and 50-fold diluted primary antibody [anti-mouse CD8a rat antibody (Ly-Z; Pharmingen) or anti-mouse CD4a rat antibody (L3T4; Pharmingen)] at 4° C. overnight. After the sample was washed with 7.5 mM Tris buffer solution (pH 7.5), it was reacted with 300-fold diluted anti-rat biotin-labeled rabbit Ig (DAKO) for 30 minutes. After the sample was washed with 9.5 mM Tris buffer solution (pH 7.5), it was reacted with 100-fold diluted streptoavidin for 30 minutes. After the sample was washed with 11.5 mM Tris buffer solution (pH 7.5), a color was developed with Fast Red. […]

Assay [4] concerns CT-26 cells derived from mouse colon cancer. The assay is described as follows: Antitumor effect on transplanted CT-26 tumors in cancer-bearing mice (tumor volume, remission). In kind it is in vivo. To be noted: Study 1, 21 days after treatment, single dose; for mean tumor volume: mean of five animals, BLM 6.5 μg/tumor intratumoral, CDDP 0.2 mg/body i.p.
Protocol: CT-26 cells derived from mouse colon cancer (5×10^6 cells) were intradermally transplanted to the backs of 8-week-old male BALB/cAnNCrj mice to yield cancer-bearing mice. Five days after the transplantation, 0.2 mg/body Platocin Injection (cisplatin, CDDP) was intraperitoneally administered to animals wherein the tumor diameter (major diameter) had reached about 5 mm. Following this administration, HVJ-E containing or not containing an anticancer drug (bleomycin hydrochloride [BLM]: Nippon Kayaku Co., Ltd.) and the like were administered into the tumor in a single dose (on the day after administration of cisplatin) or in multiple doses (3 times: 1, 5, and 8 days after administration of cisplatin). Tumor diameters, survival curves, and immune reactions in the tumor tissue were evaluated.
(Study 1) The groups described below were established, and the antitumor effects of treatment for transplanted tumors was evaluated.
For modeling, (1) a control group, (2) an HVJ-E group, (3) a BLM-alone group, (4) an HVJ-E/BLM group, (5) a CDDP-alone group, and (6) a CDDP HVJ-E/BLM single dosing group were established; tumor volumes were measured 21 days after each treatment, and the influence on the antitumor effect was examined.
(Study 2) In an attempt to further enhance the antitumor effect of the (single) treatment by single dosing of CDDP HVJ-E/BLM given in Study 1, HVJ-E/BLM was administered in multiple doses (3 times) (Study 2-1). […] (Study 2-1)
Tumor volumes were examined 21 days after treatment for (1) a control group, (2) a CDDP HVJ-E/BLM single dosing group (single treatment), and (3) a CDDP HVJ-E/BLM 3 dosing group.
After completion of the quarantine and habituation, animals were shaven with clippers. The tumor cell suspension at 100 μL/site (5×10^6 cells/body) was administered intradermally to the backs of 59 mice using a disposable syringe and injection needle (26 G). On the day following the administration, the same administration was performed on 57 animals (non-recipient animals).
Tumor diameters (major diameter, minor diameter) were measured 5 days after transplantation (not measured after grouping). Five days later, animals having a tumor diameter (major diameter) of about 5 mm were grouped by stratified randomization to obtain a nearly uniform distribution of mean tumor diameters (major diameters).
For the CDDP administration group, a single-dose intraperitoneal administration (1000 μl) was performed using a disposable injection syringe and injection needle. […]
The day of administration was taken as Day 0 after administration. On Days 3, 6, 9, 12, 15, 18, and 21 after administration, all animals had their tumor diameters measured, and tumor volume (major diameter×minor diameter×minor diameter÷2) was calculated.
In assay [5] the test system is CT-26 mouse colon cancer cells. The assay is described as follows: Antitumor effect of cisplatin (CDDP) and HVJ-E in combination, CT-26 tumors. To be noted: HVJ-E alone, CDDP 1 mg/kg, physiological saline. In kind it is in vivo. The procedure:
CT-26 mouse colon cancer cells were intradermally inoculated into the backs of BALB/c mice at 5×10^6 cells/head. Five days after the inoculation, treatment with HVJ-E and CDDP was started in the following animal groups. For each animal group, tumor volume was calculated as major diameter×minor diameter×minor diameter/2.
• #1: Physiological saline group • #2: HVJ-E alone • #3: CDDP 1 mg/kg • #4: CDDP 3 mg/kg • #5: CDDP 1 mg/kg+HVJ-E (5,000 HAU) • #6: CDDP 3 mg/kg+HVJ-E (5,000 HAU) • (n=5 or 6 for each group) (Results)

In the case of `COc1cccc2c1C(=O)c1c(O)c3c(c(O)c1C2=O)C[C@@](O)(C(=O)CO)C[C@@H]3O[C@H]1C[C@H](N)[C@H](O)[C@H](C)O1` [ADM, adriamycin], the “infiltration of MB49 cells into the bladder” value in the assay on MB49 cells [1] (ADM 0.008 μg/ml, with or without HVJ-E 5000 HAU (Groups 1, 2)) is “all animals showed evidence of infiltration of MB49 cells”. Further, the “animals in which infiltration of MB49 cells could not be prevented” value in the assay with MB49 cells [1] (Group 3: ADM 1 μg/ml) is on record as 80%. Further, in the assay on MB49 cells [2] (ADM alone (20 or 100 μg)), the tumor suppressing effect entry is listed as “a tumor suppressing effect was observed”. In addition, the tumor eradication result with MB49 cells [2] (ADM alone (20 or 100 μg), tumor diameter 7-8 mm) was “eradication was not observed”. The tumor volume in the assay on MB49 cells [2] (G2: ADM 20 μg x3 into tumor, Day 0) was determined as 128.4 mm^3; in the assay with MB49 cells [2] (G2: ADM 20 μg x3 into tumor, Day 5), 303.2 mm^3; with MB49 cells [2] (G2: ADM 20 μg x3 into tumor, Day 7), 330 mm^3; with MB49 cells [2] (G2: ADM 20 μg x3 into tumor, Day 9), 324.9 mm^3; in the assay with MB49 cells [2] (G2: ADM 20 μg x3 into tumor, Day 12), 331.74 mm^3; with MB49 cells [2] (G2: ADM 20 μg x3 into tumor, Day 15), 443.36 mm^3. The tumor volume came to 773.88 mm^3 in the assay on MB49 cells [2] (G2: ADM 20 μg x3 into tumor, Day 19); 1022.48 mm^3 with MB49 cells [2] (G2: ADM 20 μg x3 into tumor, Day 21); 119 mm^3 in the assay with MB49 cells [2] (G3: ADM 100 μg x3 into tumor, Day 0); 285.8 mm^3 with MB49 cells [2] (G3: ADM 100 μg x3 into tumor, Day 5); 291.2 mm^3 in the assay on MB49 cells [2] (G3: ADM 100 μg x3 into tumor, Day 7); 333.9 mm^3 with MB49 cells [2] (G3: ADM 100 μg x3 into tumor, Day 9). Also, the tumor volume in the assay on MB49 cells [2] (G3: ADM 100 μg x3 into tumor, Day 12) amounted to 426.88 mm^3; with MB49 cells [2] (G3: ADM 100 μg x3 into tumor, Day 15), 450.76 mm^3; in the assay with MB49 cells [2] (G3: ADM 100 μg x3 into tumor, Day 19), 989.52 mm^3; in the assay on MB49 cells [2] (G3: ADM 100 μg x3 into tumor, Day 21) it was 1220.44 mm^3. In addition, the survival rate was found to be 60.1% in assay [3] (ADM 0.004 μg/ml); 54% in assay [3] (ADM 0.008 μg/ml); 34.9% in assay [3] (ADM 0.063 μg/ml); 27.6% in assay [3] (ADM 0.125 μg/ml); 22.6% in assay [3] (ADM 0.25 μg/ml); 17.2% in assay [3] (ADM 0.5 μg/ml). The survival rate is on record as 11.7% in assay [3] (ADM 1 μg/ml) and 6.7% in assay [3] (ADM 2 μg/ml). Besides, in assay [3] (MB49 cells, WST-8), the LD50 concentration turned out to be 0.008 µg/mL. The same molecule yielded an LD90 concentration in assay [3] (MB49 cells, WST-8) of 1 µg/mL.
`[NH2][Pt]([NH2])([Cl])[Cl]` [CDDP, cisplatin]: the “% specific Cr release” value in the assay on CT-26 cells was determined as 12.9%. Besides, the “pathological findings in tumor tissue (HE staining)” value with CT-26 tumor tissue is recorded as “tumor cell necrotic signs were observed over a wide range of the tumor tissue”. Moreover, in assay [4], the mean tumor volume was determined as 387 mm^3 and the “mean tumor volume relative to control group as 100%” value was 23.2%. For the same molecule, the “order of regression effect” value in assay [5] (cell-derived HVJ-E study) was “greater in the order of the physiological saline group, HVJ-E-alone administration group, and CDDP 1 mg/kg administration group”. The “tumor volume compared among groups” value in assay [5] (egg-derived HVJ-E study) is listed as “no major difference was observed”.
Turning to bleomycin hydrochloride [BLM], the “pathological findings in tumor tissue (HE staining)” value in the assay with CT-26 tumor tissue is listed as “Generally similar findings”. Moreover, in assay [4], the mean tumor volume is given as 1303 mm^3 and the “mean tumor volume relative to control group as 100%” value is given as 80.0%.
